Data reported in patent publication US20190321429A1, “TOPICAL NATURAL LITHRAEA CAUSTICA EXTRACT COMPOSITION AND USE THEREOF IN TUMOURS” (UNIVERSIDAD DE SANTIAGO DE CHILE, priority 2016, published 2019).

What was measured:
[1] = tested on: B16 murine melanoma model; test: Transplanted B16 melanoma tumor model in B6 mice: tumor appearance and growth under topical treatment; format: in vivo
Procedure: The effect of topical treatment with 0.1% diphencyprone in mice of the B6 strain transplanted tumor model was evaluated bl6. For which initially the animals were challenged with live cells reaching generating detectable tumors between 10 days until day 20 post challenge (FIG. 1). Tumor growth has a linear behavior reaching a peak at day 7 post near challenge (FIG. 2, black circles). […] For both cases the analysis of linear growth curves of both has no significant difference when comparing the slopes. Value p=0.85.

[2] = tested on: spleen lymphocyte populations; test: T lymphocyte populations in spleen of tumor-challenged treated mice (CD4, CD8, Treg, Th1, Th17); format: in vivo; conditions: b6 mice
Procedure: To analyze the effects of this treatment on lymphocyte populations T to determine if there was an analogy to these clinical cases effect, the treatment effect level spleen lymphocyte populations CD4 and CD8 was evaluated also subpopulations CD4 CD25 foxp3 which realizes regulatory T cells, the CD4+population Tbet+which realizes THL population and the presence of CD4+population+Ror range which realizes TH17 population. Treatment with DPCP associated tumor challenge, induced an increase in Th1 population present in spleen (FIG. 3). The analysis of mice treated b6 at least 8 experiment allows the characterization that this population increased compared to control animals, however, not be significant. […] Value p=0.59.
As for the previous case, it was determined that the effect of treatment, this time with DNCB on lymphocyte populations T as in previous case Treg (FIG. 8), Th1 (FIGS. 9A and 9B) and Th17 (FIG. 10) in b6 mice. […] Analysis of at least 8 animals per treatment let characterize the increase in this population is significant.
Finally, for the case of animals treated with liter extract, it was observed that tumor level, two behaviors that may indicate a temporary dynamic behavior of cell populations response to tumor level. […] Furthermore, the bearings of the other populations are inconclusive (FIG. 17B, 17C and 17D).

[3] = treatment associated with tumor challenge, versus control animals

O=c1c(-c2ccccc2)c1-c1ccccc1 [DPCP, diphencyprone]
overall effect of curative treatment on tumor model ([1]; mice, DPCP 0.1% to 1%): not have major effects | Tumor growth (time 0 = tumor mass detected) versus control animals treated with excipients ([1]; topical 0.1% DPCP, B6 mice): no difference | tumor appearance, average detection ([1]; topical 0.1% diphencyprone, B6 mice, post challenge, shift from 13 days, change not significant): 16 days | Th1 population (CD4+ Tbet+) present in spleen [2, 3]: increase | Th17 population (CD4+ Ror gamma+) present in spleen [2, 3]: showed no change | Treg population (CD4 CD25 foxp3) in spleen [2, 3]: showed no change | CD8 or CD4 populations associated with treatment ([2]; tumor challenge): No significant changes
